Results on eleven molecules are retold here after publication PMC5435703 (Scientific Reports, 2017).

Converted amounts (≈) assume the structure as drawn. Like-named read-outs stand apart in the source and are kept apart here. Some results are limits rather than exact numbers.

In one series the test system is S. epi 12228. The experiment in a line: MIC broth microdilution assay. It counts as cell-based, Staphylococcus epidermidis. (In general: Dilution methods test growth across graded concentrations, often in twofold steps.)
The subject of series [1] is VRE 700221. As to the kind of experiment: MIC broth microdilution assay. Format: cell-based, Enterococcus faecium. To be noted: Enterococcus, VRE.
The subject of series [2] is MRSA BAA-1707. As to the kind of experiment: Calgary Biofilm Device (CBD) MBC/MBEC assay. It counts as cell-based, Staphylococcus aureus.
Series [3] has as its system MRSE 35984. The experiment in a line: Calgary Biofilm Device (CBD) MBC/MBEC assay. Format: cell-based, Staphylococcus epidermidis. Conditions: Staphylococcus epidermidis, MRSE; CBD, planktonic killing; read-out: MRSE 35984 MBC.
Series [4] concerns VRE 700221. As to the kind of experiment: Calgary Biofilm Device (CBD) MBC/MBEC assay. It counts as cell-based, Enterococcus faecium. To be noted: Enterococcus, VRE; CBD, planktonic killing; read-out: VRE 700221 MBC.
The subject of series [5] is MRSA BAA-1707. The experiment in a line: MIC broth microdilution assay. It counts as cell-based, Staphylococcus aureus.
The test system of the next series is MRSA-1. The experiment in a line: MIC broth microdilution assay. It counts as cell-based, Staphylococcus aureus. To be noted: Staphylococcus aureus, MRSA; Table 1; read-out: MIC MRSA-1.
The test system of series [6] is MRSE 35984. The experiment in a line: MIC broth microdilution assay. It counts as cell-based, Staphylococcus epidermidis. Conditions: Staphylococcus epidermidis, MRSE.
Series [7] can be described thus: LDH release assay for HeLa cytotoxicity. To be noted: human, HeLa cells; LDH release, 24 hours; tested at 25, 50 and 100 µM; read-out: HeLa Cytotox. IC50. Format: cell-based.
A short description of series [8]: Hemolysis assay with red blood cells. To be noted: human, pH 7.2.
The subject of another series is MRSA BAA-44. The experiment in a line: MIC broth microdilution assay. Format: cell-based. Conditions: Staphylococcus aureus; Table 1; read-out: MIC MRSA BAA-44.
For another series, the system named is MRSA-2. The experiment in a line: MIC broth microdilution assay. Format: cell-based, Staphylococcus aureus. To be noted: Staphylococcus aureus, MRSA; Table 1; read-out: MIC MRSA-2.
The test system of series [9] is MRSA BAA-1707. As to the kind of experiment: MIC assay with metal(II) cation co-treatment. Format: cell-based, Staphylococcus aureus. To be noted: Staphylococcus aureus.
The mark [10] stands for this setting: Staphylococcus aureus, Table 1, three independent experiments, read-out: MIC MRSA BAA-1707.
[11] abbreviates: Table 1, read-out: MIC MRSE 35984.
[12] abbreviates: Staphylococcus aureus, Table 3, read-out: MRSA BAA-1707 MIC.
[13] abbreviates: Staphylococcus aureus, single plate shown as picture, read-out: MIC (µM), MIC Assay against MRSA BAA-1707.
Where [14] appears, read: Table 3, read-out: MRSE 35984 MIC.
[15] abbreviates: single plate shown as picture, read-out: MIC (µM), MIC Assay Against MRSE 35984.
The mark [16] stands for this setting: Staphylococcus epidermidis, 12228, Table 1, read-out: MIC S. epi 12228.
Where [17] appears, read: Table 1, read-out: MIC VRE 700221.
Where [18] appears, read: Table 3, read-out: VRE 700221 MIC.

Take `CN[C@H](CC(C)C)C(=O)N[C@H]1C(=O)N[C@@H](CC(N)=O)C(=O)N[C@H]2C(=O)N[C@H]3C(=O)N[C@H](C(=O)N[C@H](C(=O)O)c4cc(O)cc(O)c4-c4cc3ccc4O)[C@H](O)c3ccc(c(Cl)c3)Oc3cc2cc(c3O[C@@H]2O[C@H](CO)[C@@H](O)[C@H](O)[C@H]2O[C@H]2C[C@](C)(N)[C@H](O)[C@H](C)O2)Oc2ccc(cc2Cl)[C@H]1O` [vancomycin, reference compound]: the MIC in the series with S. epi 12228 (Staphylococcus epidermidis, 12228, read-out: MIC S. epi 12228) was 1.17 µM (≈ 1.7 µg/mL); in the series on VRE 700221 [1] (read-out: MIC VRE 700221), above 100 µM; with VRE 700221 [1] (read-out: VRE 700221 MIC), above 100 µM. Besides, the “MRSA-1707 Biofilm Eradication MBEC” value with MRSA BAA-1707 [2] (Figure 7A, single CBD plate) is above 2000 µM. For the same molecule, the MBC was 3.9 µM (≈ 5.65 µg/mL) with MRSA BAA-1707 [2] (Staphylococcus aureus, Figure 7A, single CBD plate, read-out: MRSA-1707 Planktonic Eradication MBC); 3.9 µM (≈ 5.65 µg/mL) in the series with MRSA BAA-1707 [2] (Staphylococcus aureus, CBD, planktonic killing, 24 hours treatment, read-out: MRSA BAA-1707 MBC); 3 µM (≈ 4.35 µg/mL) with MRSE 35984 [3]; above 200 µM in the series on VRE 700221 [4].
With `Cc1cc(Br)c(O)c2nc3cc(Br)ccc3nc12` [HP 14], the MIC in the series with MRSA BAA-1707 [5] (setting [10]) is 9.38 µM (≈ 3.45 µg/mL); with MRSA-1, 75 µM (≈ 27.6 µg/mL); with MRSE 35984 [6] (setting [11]), 75 µM (≈ 27.6 µg/mL).
Turning to `Cc1ccc2nc3c(O)c(Br)cc(Br)c3nc2c1C` [HP 19], the MIC is 0.15 µM (≈ 0.0573 µg/mL) in the series on MRSA BAA-1707 [5] (setting [10]); 0.15 µM (≈ 0.0573 µg/mL) with MRSA BAA-1707 [5] (setting [12]); 0.1 µM (≈ 0.0382 µg/mL) in the series with MRSA BAA-1707 [5] (setting [13]); 0.3 µM (≈ 0.115 µg/mL) with MRSE 35984 [6] (setting [14]); 0.2 µM (≈ 0.0764 µg/mL) in the series on MRSE 35984 [6] (setting [15]); 6.25 µM (≈ 2.39 µg/mL) with S. epi 12228 (setting [16]). Also, the MIC in the series on S. epi 12228 (Staphylococcus epidermidis, 12228, single plate shown as picture, read-out: MIC (µM), MIC Assay Against S. epidermidis 12228) was 6.25 µM (≈ 2.39 µg/mL); with VRE 700221 [1] (setting [17]) it was 0.15 to 1.56 µM (≈ 0.0573 to 0.596 µg/mL); in the series on VRE 700221 [1] (setting [18]) it was 0.15 µM (≈ 0.0573 µg/mL); in the series on VRE 700221 [1] (single plate shown as picture, read-out: MIC (µM), MIC Assay Against VRE 700221), 0.2 µM (≈ 0.0764 µg/mL). For the same molecule, in series [7], the IC50 (commonly the point on the concentration scale where inhibition reaches its midpoint) at 24 h is above 100 µM. This molecule also returned a hemolysis at 1 h, 200 µM in series [8] of 5.3%.
On to `Cc1cc(Br)c(O)c2nc3ccccc3nc12` [HP 4], for which the MIC amounted to 3.13 µM (≈ 0.905 µg/mL) with MRSA BAA-1707 [5] (setting [10]); 3.13 µM (≈ 0.905 µg/mL) in the series on MRSA BAA-1707 [5] (setting [12]); 3.13 µM (≈ 0.905 µg/mL) in the series on MRSA BAA-1707 [5] (setting [13]); 50 µM (≈ 14.5 µg/mL) in the series with MRSA BAA-44; 50 µM (≈ 14.5 µg/mL) with MRSA-1; 3.13 µM (≈ 0.905 µg/mL) with MRSA-2. Further, the MIC with S. epi 12228 (setting [16]), in the series on VRE 700221 [1] (setting [17]) and with VRE 700221 [1] (setting [18]) was 3.13 µM (≈ 0.905 µg/mL) throughout. Further, the concentration for half-maximal inhibition (IC50) at 24 h in series [7] was above 100 µM. For the same molecule, the MBC with MRSA BAA-1707 [2] (Staphylococcus aureus, 24 h, CBD, planktonic killing, 24 hours treatment, read-out: MRSA BAA-1707 MBC) worked out at 46.9 µM (≈ 13.6 µg/mL); with MRSE 35984 [3] it was 150 µM (≈ 43.4 µg/mL). For the same molecule, in series [8], the hemolysis at 1 h, 200 µM was at most 1%.
For the molecule `Cc1cc(Br)c(O)c2nc3cccc(Cl)c3nc12` [HP 11], the MIC in the series with MRSA BAA-44 was 3.13 µM (≈ 1.01 µg/mL); in the series with MRSA-2, 3.13 µM (≈ 1.01 µg/mL); with MRSE 35984 [6] (setting [11]), 1.56 µM (≈ 0.505 µg/mL); in the series with S. epi 12228 (setting [16]), 1.56 µM (≈ 0.505 µg/mL); in the series with VRE 700221 [1] (setting [17]) it was 3.13 µM (≈ 1.01 µg/mL).
As for `Cc1cccc2nc3c(O)c(Br)cc(C)c3nc12` [HP 5], the MIC is 9.38 µM (≈ 2.84 µg/mL) in the series with MRSA BAA-1707 [5] (setting [10]), 12.5 µM (≈ 3.79 µg/mL) in the series on MRSA BAA-1707 [5] (setting [13]), 37.5 µM (≈ 11.4 µg/mL) with MRSA-1 and above 100 µM with VRE 700221 [1] (setting [17]).
`Oc1cccc2nc3ccccc3nc12` [1-OHP, 1-hydroxyphenazine, reference compound]: the MIC with MRSA BAA-1707 [9] (Table 2, MRSA BAA-1707, no metal(II) cation added, read-out: MIC) was 250 µM; with MRSA BAA-1707 [9] (copper(II) at 200 µM co-treatment, read-out: MIC w/Cu2+) it was 75 µM; with MRSA BAA-1707 [9] (iron(II) at 200 µM co-treatment, read-out: MIC w/Fe2+) it was 250 µM; in the series on MRSA BAA-1707 [9] (magnesium(II) at 200 µM co-treatment, read-out: MIC w/Mg2+), 250 µM; in the series with MRSA BAA-1707 [9] (zinc(II) at 200 µM co-treatment, read-out: MIC w/Zn2+) it was above 500 µM.
In the case of `CC(=O)NC[C@H]1CN(c2ccc(N3CCOCC3)c(F)c2)C(=O)O1` [linezolid, reference compound], the MIC in the series on MRSA BAA-1707 [5] (setting [10]) was 12.5 µM (≈ 4.22 µg/mL); in the series with MRSA BAA-1707 [5] (setting [12]), 12.5 µM (≈ 4.22 µg/mL); with MRSA-2, 3.13 µM (≈ 1.06 µg/mL); with MRSE 35984 [6] (setting [11]) it was 3.13 µM (≈ 1.06 µg/mL); in the series on MRSE 35984 [6] (setting [14]), 3.13 µM (≈ 1.06 µg/mL); with VRE 700221 [1] (setting [17]) it was 3.13 µM (≈ 1.06 µg/mL). In addition, the MIC with VRE 700221 [1] (setting [18]) amounted to 3.13 µM (≈ 1.06 µg/mL). For the same molecule, the “MRSA BAA-1707 MBEC” value with MRSA BAA-1707 [2] (CBD, biofilm eradication, 24 hours treatment) was above 2000 µM. In addition, the MBC in the series with MRSA BAA-1707 [2] (Staphylococcus aureus, 24 h, read-out: MRSA BAA-1707 MBC) worked out at 31.3 µM (≈ 10.6 µg/mL). The minimal effective concentration with MRSA BAA-1707 [2] (Staphylococcus aureus, 24 h, read-out: MRSA BAA-1707 MBEC) is above 2000 µM.
Take `Cc1cc(Br)c(O)c2nc3cc(C(C)(C)C)ccc3nc12` [HP 8]: the MIC in the series with MRSA BAA-1707 [5] (setting [10]) is above 100 µM; in the series on MRSA BAA-1707 [5] (Table 1, three independent experiments, read-out: MIC MRSA BAA-1707), above 100 µM; with MRSA-1, above 100 µM; in the series with MRSE 35984 [6] (setting [11]) it was above 100 µM; in the series with MRSE 35984 [6] (setting [15]), above 100 µM; in the series on VRE 700221 [1] (setting [17]), above 100 µM.
As to `Cc1ccc2nc3c(O)c(Br)cc(C)c3nc2c1C` [HP 7], the MIC in the series on MRSA-1 is 50 µM (≈ 15.9 µg/mL).
`CCc1cc(Br)c2nc3c(C)cc(Br)c(O)c3nc2c1` [HP 10]: the MIC was 50 µM (≈ 19.8 µg/mL) in the series on MRSA-1, 37.5 µM (≈ 14.9 µg/mL) with MRSE 35984 [6] (setting [11]) and 50 µM (≈ 19.8 µg/mL) in the series with VRE 700221 [1] (setting [17]).
